The test deals with T1, ΔF508-CFTR (Homo sapiens, UniProt P13569, DEL508-508).
T1 construct: Primary lung epithelial cells homozygous for the Cystic Fibrosis-causing ΔF508 mutation were differentiated for a minimum of 4 weeks; endogenous in cells; host or cells: primary human bronchial (lung) epithelial cells (hBE) homozygous for ΔF508, differentiated at an air-liquid interface
Put plainly: hBE Equivalent Current (Ieq) Assay. As to conditions: AUC of equivalent chloride current, primary lung epithelial cells homozygous for ΔF508, 24 h treatment. The test is classed as cell-based. The protocol:
Primary lung epithelial cells homozygous for the Cystic Fibrosis-causing ΔF508 mutation were differentiated for a minimum of 4 weeks in an air-liquid interface on Costar 24 well HTS filter plates prior to the equivalent current (Ieq) measurements. Cells were apically mucus-washed for 30 minutes 24 h prior to treatment with compounds. The basolateral media was removed and replaced with media containing the compound of interest diluted to its final concentration from DMSO stocks. Treated cells were incubated at 37° C. and 5% CO2 for 24 hours. At the end of the treatment period, the media was changed to the Ieq experimental solution for 30 minutes before the experiment and plates are maintained in a CO2-free incubator during this period. The plates containing the cells were then placed in pre-warmed heating blocks at 36° C.±0.5 for 15 minutes before measurements are taken. The transepithelial voltage (VT) and conductance (GT) were measured using a custom 24 channel current clamp (TECC-24) with 24 well electrode manifold. The Ieq assay measurements were made following additions with standardized time periods: • 1. The baseline VT and GT values were measured for approximately 20 minutes. • 2. Benzamil was added to block ENaC for 15 minutes. • 3. Forskolin plus VX-770 were added to maximally activate ΔF508-CFTR for 27 minutes. • 4. Bumetanide was added to inhibit the NaK2Cl cotransporter and shut-off secretion of chloride.
The activity data captured was the area under the curve (AUC) for the traces of the equivalent chloride current. The AUC was collected from the time of the forskolin/VX-770 addition until the inhibition by bumetanide addition. Correction in response to compound treatment was scored as the increase in the AUC for compound-treated samples over that of vehicle-treated samples.
The results are shown below in Table 2. ++ indicates activity ≥25% run at 10 uM of VX-809 at 1 uM, + indicates activity 10 to <25% run at 10 uM of VX-809 at 1 uM, **indicates activity ≥200% of VX-809 (1 uM) with compound at 10 uM and VX-809 at 1 uM; * indicates activity 100-200% of VX-809 (1 uM) with compound at 10 uM and VX-809 at 1 uM. ^## indicates activity ≥200% of VX-809 (3 uM) with compound at 10 uM and VX-809 at 3 uM; ^# indicates activity 100-200% of VX-809 (3 uM) with compound at 10 uM and VX-809 at 3 uM.

The mark [1] stands for this setting: compound at 10 uM and VX-809 at 1 uM, activity as % of VX-809 (1 uM).
Where [2] appears, read: compound run at 10 uM, activity relative to VX-809 at 1 uM.

Each structure is given as a SMILES string.

T1 sequence (P13569 with tags, fused parts or gaps DEL508-508): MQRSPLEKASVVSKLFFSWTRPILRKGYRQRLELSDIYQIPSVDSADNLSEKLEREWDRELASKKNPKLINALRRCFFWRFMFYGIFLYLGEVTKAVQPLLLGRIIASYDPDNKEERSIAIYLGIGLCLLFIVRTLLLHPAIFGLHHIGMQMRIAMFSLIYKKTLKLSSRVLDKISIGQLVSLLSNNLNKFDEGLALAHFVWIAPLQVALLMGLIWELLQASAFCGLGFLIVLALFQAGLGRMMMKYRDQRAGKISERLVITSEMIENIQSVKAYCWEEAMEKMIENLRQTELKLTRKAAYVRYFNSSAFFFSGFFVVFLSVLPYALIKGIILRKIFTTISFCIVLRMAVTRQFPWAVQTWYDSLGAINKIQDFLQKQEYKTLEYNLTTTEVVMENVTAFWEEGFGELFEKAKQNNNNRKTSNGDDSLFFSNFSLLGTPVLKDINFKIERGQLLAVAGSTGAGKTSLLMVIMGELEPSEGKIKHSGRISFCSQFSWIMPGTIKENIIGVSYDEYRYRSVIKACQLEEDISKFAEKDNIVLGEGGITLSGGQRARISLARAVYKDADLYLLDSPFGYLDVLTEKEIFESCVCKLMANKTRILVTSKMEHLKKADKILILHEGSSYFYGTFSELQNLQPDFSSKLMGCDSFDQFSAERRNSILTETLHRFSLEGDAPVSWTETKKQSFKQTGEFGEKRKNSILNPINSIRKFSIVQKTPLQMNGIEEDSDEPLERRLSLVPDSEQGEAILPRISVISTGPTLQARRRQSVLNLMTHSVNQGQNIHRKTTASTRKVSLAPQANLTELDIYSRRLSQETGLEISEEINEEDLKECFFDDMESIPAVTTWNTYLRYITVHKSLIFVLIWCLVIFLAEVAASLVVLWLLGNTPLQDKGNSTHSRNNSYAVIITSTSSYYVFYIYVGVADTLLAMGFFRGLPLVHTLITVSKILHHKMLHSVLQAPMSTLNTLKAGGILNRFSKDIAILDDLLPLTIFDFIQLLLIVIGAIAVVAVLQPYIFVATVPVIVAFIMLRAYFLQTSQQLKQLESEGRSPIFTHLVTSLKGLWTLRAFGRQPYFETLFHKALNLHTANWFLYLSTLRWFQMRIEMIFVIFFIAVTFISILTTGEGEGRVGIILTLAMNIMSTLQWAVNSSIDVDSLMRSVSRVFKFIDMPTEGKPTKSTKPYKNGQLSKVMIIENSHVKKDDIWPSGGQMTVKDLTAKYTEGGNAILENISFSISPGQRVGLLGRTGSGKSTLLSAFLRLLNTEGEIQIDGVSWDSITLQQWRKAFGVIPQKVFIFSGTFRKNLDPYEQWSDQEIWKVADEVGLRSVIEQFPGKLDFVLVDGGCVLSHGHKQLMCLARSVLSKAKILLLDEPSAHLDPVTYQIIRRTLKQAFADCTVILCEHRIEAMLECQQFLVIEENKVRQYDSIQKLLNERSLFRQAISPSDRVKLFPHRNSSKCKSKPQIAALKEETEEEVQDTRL

As for `CC(OC1CCC1)c1nnc([C@H]2C[C@H](NC(=O)c3cc(-c4ccccc4)no3)C2)o1` (relative stereo) [Example 17, N-(trans-3-(5-(1-cyclobutoxyethyl)-1,3,4-oxadiazol-2-yl)cyclobutyl)-3-phenylisoxazole-5-carboxamide], under setting [1], the Ieq result is “* (* indicates activity 100-200% of VX-809 (1 uM) with compound at 10 uM and VX-809 at 1 uM)”.

For `CC(OCC(F)(F)F)c1nnc(C2CC(NC(=O)c3cc(-c4ccccc4)no3)C2)o1` (single isomer, unassigned) [Example 15], under setting [1], the Ieq entry was “* (* indicates activity 100-200% of VX-809 (1 uM) with compound at 10 uM and VX-809 at 1 uM)”.

`COCCNC(=O)c1cc(-c2ccccc2)no1` [Example 1, N-(2-methoxyethyl)-3-phenylisoxazole-5-carboxamide]: the Ieq result under setting [2] is reported as “++ (++ indicates activity ≥25% run at 10 uM of VX-809 at 1 uM)”.

On to `O=C(NCC1CCCO1)c1cc(-c2ccccc2)no1` (stereo not shown) [Example 2, 3-phenyl-N-((tetrahydrofuran-2-yl)methyl)isoxazole-5-carboxamide], for which the Ieq result under setting [2] was “++ (++ indicates activity ≥25% run at 10 uM of VX-809 at 1 uM)”.

Consider `O=C(NCCN1CCOCC1)c1cc(-c2ccccc2)no1` [Example 3, N-(2-morpholinoethyl)-3-phenylisoxazole-5-carboxamide], for which the Ieq result under setting [2] is recorded as “++ (++ indicates activity ≥25% run at 10 uM of VX-809 at 1 uM)”.

As to `O=C(NCCCn1ccnc1)c1cc(-c2ccccc2)no1` [Example 4, N-(3-(1H-imidazol-1-yl)propyl)-3-phenylisoxazole-5-carboxamide], under setting [2], the Ieq result is given as “+ (+ indicates activity 10 to <25% run at 10 uM of VX-809 at 1 uM)”.

For the compound `Cn1nccc1CCCNC(=O)c1cc(-c2ccccc2)no1` [Example 7, N-(3-(1-methyl-1H-pyrazol-5-yl)propyl)-3-phenylisoxazole-5-carboxamide], the Ieq entry by setting is: under setting [1], “* (* indicates activity 100-200% of VX-809 (1 uM) with compound at 10 uM and VX-809 at 1 uM)”; under setting [2], “++ (++ indicates activity ≥25% run at 10 uM of VX-809 at 1 uM)”.

With `COCCNC(=O)c1cc(-c2ccccc2)co1` [Example 8, N-(2-methoxyethyl)-4-phenylfuran-2-carboxamide], the Ieq result under setting [2] is on record as “+ (+ indicates activity 10 to <25% run at 10 uM of VX-809 at 1 uM)”.

As to `O=C(NCC1CCCO1)c1cc(-c2ccccc2)co1` (stereo not shown) [Example 9, 4-phenyl-N-((tetrahydrofuran-2-yl)methyl)furan-2-carboxamide], the Ieq result under setting [2] was “++ (++ indicates activity ≥25% run at 10 uM of VX-809 at 1 uM)”.

In the case of `O=C(NCCN1CCOCC1)c1cc(-c2ccccc2)co1` [Example 10, N-(2-morpholinoethyl)-4-phenylfuran-2-carboxamide], the Ieq result under setting [2] is recorded as “+ (+ indicates activity 10 to <25% run at 10 uM of VX-809 at 1 uM)”.

Consider `O=C(NCCCn1ccnc1)c1cc(-c2ccccc2)co1` [Example 11, N-(3-(1H-imidazol-1-yl)propyl)-4-phenylfuran-2-carboxamide], for which, under setting [2], the Ieq result is given as “++ (++ indicates activity ≥25% run at 10 uM of VX-809 at 1 uM)”.

In the case of `O=C(NC1CC1)c1cc(-c2ccccc2)co1` [Example 12, N-cyclopropyl-4-phenylfuran-2-carboxamide], the Ieq result runs as follows: under setting [1], “* (* indicates activity 100-200% of VX-809 (1 uM) with compound at 10 uM and VX-809 at 1 uM)”; under setting [2], “++ (++ indicates activity ≥25% run at 10 uM of VX-809 at 1 uM)”.

`CO[C@H](C)c1nnc([C@H]2C[C@H](NC(=O)c3cc(-c4ccccc4)no3)C2)o1` [Example 14, N-(trans-3-(5-((R)-1-methoxyethyl)-1,3,4-oxadiazol-2-yl)cyclobutyl)-3-phenylisoxazole-5-carboxamide]: under setting [1], the Ieq entry was “* (* indicates activity 100-200% of VX-809 (1 uM) with compound at 10 uM and VX-809 at 1 uM)”.

Turning to `C[C@@H](OCC1CN(C)C1)c1nnc([C@H]2C[C@H](NC(=O)c3cc(-c4ccccc4)no3)C2)o1` [Example 20, N-(trans-3-(5-((R)-1-((1-methylazetidin-3-yl)methoxy)ethyl)-1,3,4-oxadiazol-2-yl)cyclobutyl)-3-phenylisoxazole-5-carboxamide], the Ieq result under setting [1] is “* (* indicates activity 100-200% of VX-809 (1 uM) with compound at 10 uM and VX-809 at 1 uM)”.

The record behind these values is patent publication US11098035B2, “Compounds, compositions, and methods for increasing CFTR activity” (Proteostasis Therapeutics, Inc., priority 2014, dated 2021).
